The text below walks through data of US20220289753A1, “SHP2 INHIBITORS” (IRBM S.P.A., priority 2019, published 2022).

pIC50: −log10 of the molar value. A value given as a limit tells only on which side of the number the result lay.

This assay has as its target T1, SHP-2 enzyme (Met1-Leu525) (Homo sapiens, UniProt Q06124).
T1 construct: synthetized by Origene, Met1-Leu525, cat #TP750155; purchased Origene TP750155
T1 sequence (Q06124 1-525): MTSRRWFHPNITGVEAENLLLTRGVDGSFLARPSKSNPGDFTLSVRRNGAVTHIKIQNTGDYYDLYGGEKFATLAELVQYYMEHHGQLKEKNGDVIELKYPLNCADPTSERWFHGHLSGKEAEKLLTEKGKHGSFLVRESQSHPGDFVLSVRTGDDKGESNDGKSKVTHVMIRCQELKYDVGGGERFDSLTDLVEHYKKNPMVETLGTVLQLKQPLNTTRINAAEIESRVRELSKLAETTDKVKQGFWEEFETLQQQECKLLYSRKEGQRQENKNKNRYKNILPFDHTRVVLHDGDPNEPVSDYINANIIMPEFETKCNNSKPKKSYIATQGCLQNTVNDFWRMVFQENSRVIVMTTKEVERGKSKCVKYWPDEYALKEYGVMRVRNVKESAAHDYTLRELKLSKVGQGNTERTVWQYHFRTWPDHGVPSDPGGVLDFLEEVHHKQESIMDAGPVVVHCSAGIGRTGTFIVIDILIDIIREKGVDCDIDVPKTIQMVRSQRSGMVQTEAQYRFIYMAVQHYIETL
Nature of the assay: SHP2 inhibition enzymatic assay (DiFMUP substrate, IRS1 peptide activation). It is filed as biochemical. The settings on record: SHP2 wt; activated by 500 nM IRS1 peptide; 75 μM DiFMUP substrate. The protocol: SHP2 Inhibition Enzymatic Assay
Assay volume of 20 μL/well was assembled in 384 well black polystyrene low-binding microplates (Greiner), using the following buffer: 60 mM HEPES pH 7.2, 75 mM NaCl, 75 mM KCl, 1 mM EDTA pH 8, 0.05% tween-20, 5 mM DTT. The SHP-2 enzyme (synthetized by Origene, Met1-Leu525, cat #TP750155) was used at a final concentration of 0.5 nM.
Briefly, DMSO serially diluted testing compounds were transferred to the bottom of the assay plate. SHP2 was then added together with the IRS1 peptide. 30 minutes post incubation, the DiFMUP substrate was added to the reaction and incubated 30 min at room temperature. […] The fluorescence was detected by a microplate reader (Envision, PerkinElmer) according to the DiFMUP excitation and emission wavelength. The lower the fluorescence the higher the SHP2 inhibition.
The percentage inhibition is fitted against the compound dilutions with a four-parameter logistic regression. The inflection point (i.e. the concentration at which half-maximal inhibition is achieved) is the IC50.

Compound `CC1(N)CCN(c2nc3nc(Sc4ccnc5ccnn45)cnc3[nH]2)CC1` [Example 104, 4-methyl-1-(5-(pyrazolo[1,5-a]pyrimidin-7-ylthio)-1H-imidazo[4,5-b]pyrazin-2-yl)piperidin-4-amine] had a pIC50 of less than 5.52.

`FC(F)(F)c1ncccc1Sc1cnc2[nH]c(N3CCC(Cn4ccnc4)CC3)nc2n1` [Example 42, 2-(4-((1H-imidazol-1-yl)methyl)piperidin-1-yl)-5-((2-(trifluoromethyl)pyridin-3-yl)thio)-1H-imidazo[4,5-b]pyrazine] had a pIC50 of 5.52 to 6.30. The same measure for `CC1(N)CCN(c2nc3nc(Sc4cccc(-c5ccccc5)c4)cnc3[nH]2)CC1` [Example 58, 1-(5-([1,1′-biphenyl]-3-ylthio)-1H-imidazo[4,5-b]pyrazin-2-yl)-4-methylpiperidin-4-amine]: 5.52 to 6.30; for `CC1(N)CCN(c2nc3nc(Sc4ccc5ccccc5c4)cnc3[nH]2)CC1` [Example 81, 4-methyl-1-(5-(naphthalen-2-ylthio)-1H-imidazo[4,5-b]pyrazin-2-yl)piperidin-4-amine]: 5.52 to 6.30. For the compound `NC1CN(c2nc3nc(Sc4cccnc4C(F)(F)F)cnc3[nH]2)C1` [Example 15, 1-(5-((2-(trifluoromethyl)pyridin-3-yl)thio)-1H-imidazo[4,5-b]pyrazin-2-yl)azetidin-3-amine], the pIC50 is less than 5.52.

For the compound `Nc1nccc(Sc2cnc3[nH]c(N4CCC5(CC4)Oc4ccccc4[C@H]5N)nc3n2)c1Cl` [Example 159, (R)-1′-(5-((2-amino-3-chloropyridin-4-yl)thio)-1H-imidazo[4,5-b]pyrazin-2-yl)-3H-spiro[benzofuran-2,4′-piperidin]-3-amine], the negative-log IC50 (pIC50) is greater than 6.30. Turning to `CC(N)CCNc1nc2nc(Sc3cccnc3C(F)(F)F)cnc2[nH]1` (stereo not shown) [Example 54, N1-(5-((2-(trifluoromethyl)pyridin-3-yl)thio)-1H-imidazo[4,5-b]pyrazin-2-yl)butane-1,3-diamine], the pIC50 was 5.52 to 6.30. The same measure for `COc1ncccc1Sc1cnc2[nH]c(N3CCC4(CC3)Cc3ccccc3[C@H]4N)nc2n1` [Example 214, (S)-1′-(5-((2-methoxypyridin-3-yl)thio)-1H-imidazo[4,5-b]pyrazin-2-yl)-1,3-dihydrospiro[indene-2,4′-piperidin]-1-amine]: greater than 6.30. In turn, `CC1(N)CCN(c2nc3nc(Sc4cccc5[nH]cnc45)cnc3[nH]2)CC1` [Example 116] showed a pIC50 of 5.52 to 6.30. `Nc1cnc2c(c1)CN(c1nc3nc(Sc4cccnc4C(F)(F)F)cnc3[nH]1)CC2` [Example 108, 6-(5-((2-(trifluoromethyl)pyridin-3-yl)thio)-1H-imidazo[4,5-b]pyrazin-2-yl)-5,6,7,8-tetrahydro-1,6-naphthyridin-3-amine]: the negative-log IC50 (pIC50) is less than 5.52. In the case of `CC1(N)CCN(c2nc3ncc(Sc4csc5ccccc45)nc3[nH]2)CC1` [Example 30, 1-(6-(benzo[b]thiophen-3-ylthio)-1H-imidazo[4,5-b]pyrazin-2-yl)-4-methylpiperidin-4-amine], the negative-log IC50 (pIC50) was less than 5.52. As for `CC1(N)CCN(c2nc3nc(Sc4ccsc4Cl)cnc3[nH]2)CC1` [Example 73, 1-(5-((2-chlorothiophen-3-yl)thio)-1H-imidazo[4,5-b]pyrazin-2-yl)-4-methylpiperidin-4-amine], the pIC50 is greater than 6.30. `FC(F)(F)c1ncccc1Sc1cnc2[nH]c(N3CCN4CCNCC4C3)nc2n1` (stereo not shown) [Example 56, 2-(5-((2-(trifluoromethyl)pyridin-3-yl)thio)-1H-imidazo[4,5-b]pyrazin-2-yl)octahydro-2H-pyrazino[1,2-a]pyrazine] gave a pIC50 of 5.52 to 6.30. `NC1CCCN(c2nc3nc(Sc4cccnc4C(F)(F)F)cnc3[nH]2)C1` (stereo not shown) [Example 33, 1-(5-((2-(trifluoromethyl)pyridin-3-yl)thio)-1H-imidazo[4,5-b]pyrazin-2-yl)piperidin-3-amine]: the negative-log IC50 (pIC50) is greater than 6.30. With `Cn1ncc2cc(Sc3cnc4nc(N5CCC(C)(N)CC5)[nH]c4n3)ccc21` [Example 6, 4-methyl-1-(6-((1-methyl-1H-indazol-5-yl)thio)-1H-imidazo[4,5-b]pyrazin-2-yl)piperidin-4-amine], the negative logarithm of the IC50 (pIC50) was 5.52 to 6.30. As for `Cc1nc(-c2cccc(Sc3cnc4[nH]c(N5CCC(C)(N)CC5)nc4n3)c2)cs1` [Example 48, 4-methyl-1-(5-((3-(2-methylthiazol-4-yl)phenyl)thio)-1H-imidazo[4,5-b]pyrazin-2-yl)piperidin-4-amine], the negative-log IC50 (pIC50) is 5.52 to 6.30. `CC1(N)CCN(c2nc3nc(Sc4cccc5ncncc45)cnc3[nH]2)CC1` [Example 100, 4-methyl-1-(5-(quinazolin-5-ylthio)-1H-imidazo[4,5-b]pyrazin-2-yl)piperidin-4-amine]: the negative-log IC50 (pIC50) was 5.52 to 6.30.

Turning to `NC(=O)C1CCN(c2nc3nc(Sc4cccnc4C(F)(F)F)cnc3[nH]2)CC1` [Example 51, 1-(5-((2-(trifluoromethyl)pyridin-3-yl)thio)-1H-imidazo[4,5-b]pyrazin-2-yl)piperidine-4-carboxamide], the pIC50 is less than 5.52.

Consider `CC1(N)CCN(c2nc3ncc(Sc4cccc5ncccc45)nc3[nH]2)CC1` [Example 49, 4-methyl-1-(6-(quinolin-5-ylthio)-1H-imidazo[4,5-b]pyrazin-2-yl)piperidin-4-amine], for which the negative logarithm of the IC50 (pIC50) was greater than 6.30.

`NC(=O)Cn1c(N2CCC3(CC2)Cc2ccccc2[C@H]3N)nc2nc(Sc3cccnc3C(F)(F)F)cnc21` [Example 137, (S)-2-(2-(1-amino-1,3-dihydrospiro[indene-2,4′-piperidin]-1′-yl)-5-((2-(trifluoromethyl)pyridin-3-yl)thio)-1H-imidazo[4,5-b]pyrazin-1-yl)acetamide] showed a pIC50 of less than 5.52. `CC1(N)CCN(c2nc3nc(Sc4cccc(CC(=O)O)c4)cnc3[nH]2)CC1` [Example 103, 2-(3-((2-(4-amino-4-methylpiperidin-1-yl)-1H-imidazo[4,5-b]pyrazin-5-yl)thio)phenyl)acetic acid] showed a pIC50 greater than 6.30.

Regarding `COc1cccc(Sc2cnc3[nH]c(N4CCC(C)(N)CC4)nc3n2)c1` [Example 25, 1-(5-((3-methoxyphenyl)thio)-1H-imidazo[4,5-b]pyrazin-2-yl)-4-methylpiperidin-4-amine], the negative logarithm of the IC50 (pIC50) is 5.52 to 6.30. `Cc1ccsc1Sc1cnc2[nH]c(N3CCC(C)(N)CC3)nc2n1` [Example 68, 4-methyl-1-(5-((3-methylthiophen-2-yl)thio)-1H-imidazo[4,5-b]pyrazin-2-yl)piperidin-4-amine] gave a pIC50 of less than 5.52. `CC1(N)CCN(c2nc3nc(Sc4ccc(C(=O)O)cc4Cl)cnc3[nH]2)CC1` [Example 99, 4-((2-(4-amino-4-methylpiperidin-1-yl)-1H-imidazo[4,5-b]pyrazin-5-yl)thio)-3-chlorobenzoic acid] showed a negative logarithm of the IC50 (pIC50) greater than 6.30. The compound `CC1(N)CCN(c2nc3ncc(Sc4cccnc4)nc3[nH]2)CC1` [Example 12, 4-methyl-1-(6-(pyridin-3-ylthio)-1H-imidazo[4,5-b]pyrazin-2-yl)piperidin-4-amine] gave a negative-log IC50 (pIC50) of 5.52 to 6.30. `CC1(N)CCN(c2nc3ncc(Sc4csc5cnccc45)nc3[nH]2)CC1` [Example 9, 4-methyl-1-(6-(thieno[2,3-c]pyridin-3-ylthio)-1H-imidazo[4,5-b]pyrazin-2-yl)piperidin-4-amine] showed a pIC50 of 5.52 to 6.30.

In turn, `CC1(N)CCN(c2nc3nc(Sc4ccccc4C#N)cnc3[nH]2)CC1` [Example 23, 2-((2-(4-amino-4-methylpiperidin-1-yl)-1H-imidazo[4,5-b]pyrazin-5-yl)thio)benzonitrile] had a pIC50 greater than 6.30. In the case of `CC1(N)CCN(c2nc3ncc(Sc4ccc(C5(C#N)CCC5)cc4)nc3[nH]2)CC1` [Example 29, 1-(4-((2-(4-amino-4-methylpiperidin-1-yl)-1H-imidazo[4,5-b]pyrazin-6-yl)thio)phenyl)cyclobutane-1-carbonitrile], the pIC50 was less than 5.52. With `CC1(N)CCN(c2nc3nc(Sc4cccc(O)n4)cnc3[nH]2)CC1` [Example 66, 6-((2-(4-amino-4-methylpiperidin-1-yl)-1H-imidazo[4,5-b]pyrazin-5-yl)thio)pyridin-2-ol], the negative-log IC50 (pIC50) is less than 5.52. In turn, `FC(F)(F)c1ncccc1Sc1cnc2[nH]c(N3CC4(CCCNC4)C3)nc2n1` [Example 17, 2-(2,6-diazaspiro[3.5]nonan-2-yl)-5-((2-(trifluoromethyl)pyridin-3-yl)thio)-1H-imidazo[4,5-b]pyrazine] showed a pIC50 of 5.52 to 6.30.

`Cn1cnc(C2CCN(c3nc4nc(Sc5cccnc5C(F)(F)F)cnc4[nH]3)CC2)c1` [Example 53, 2-(4-(1-methyl-1H-imidazol-4-yl)piperidin-1-yl)-5-((2-(trifluoromethyl)pyridin-3-yl)thio)-1H-imidazo[4,5-b]pyrazine] showed a pIC50 of less than 5.52.
